In patent US6589963B2, “Heterocyclic compounds and salts thereof and medicinal use of the same” (Kyoto Pharmaceutical Industries, Ltd., priority 1999, dated 2003):

Assays:
[1] = system: male KK-A^y mice; assay: Hypoglycemic action (method A); assay type: in vivo, mouse; settings: 4 consecutive days, non-fasting, about 24 hours after final administration, vs control group
Description: (§1) The glucose level in the plasma was measured using a commercially available assay kit (glucose CII-test WAKO, Wako Pure Chemical Industries, Ltd.). The mice were grouped (5 mice per group) into a control group and an administration group, such that the mean and the standard deviation of the glucose level in the plasma of each group were nearly the same. Each test compound was suspended or dissolved in 5% gum arabic solution and administered orally to the administration group for 4 consecutive days from the next day. The 5% gum arabic solution was orally administered to the control group. Blood was drawn from the tail vein under a non-fasting state about 24 hours after the final administration and the glucose level in the plasma was measured. The decrease in the plasma glucose level was calculated from the following formula.
(§2) Decrease (%) in plasma glucose level=[(mean plasma glucose level of control group−mean plasma glucose level of test compound administration group)/mean plasma glucose level of control group]×100

[2] = system: male KK-A^y mice; assay: Hypoglycemic action (method B); assay type: in vivo, mouse; settings: 0.1 w/w % in powder feed for 4 days, blood at day 5, non-fasting, vs control group
Description: The glucose level in the plasma was measured using a commercially available assay kit (glucose CII-test WAKO, Wako Pure Chemical Industries, Ltd.). The mice were grouped (5 mice per group) into a control group and an administration group, such that the mean and the standard deviation of the glucose level in the plasma of each group were nearly the same. Each test compound was admixed in a proportion of 0.1 w/w % with a powder feed (CE-2, Clea) and the feed mixture was fed to the administration group for 4 days from the next day. A regular powder feed was fed to the control group. At day 5, blood was drawn from the tail vein under a non-fasting state and the glucose level in the plasma was measured. The decrease in the plasma glucose level was calculated from the following formula.
as §2

[3] = system: male KK-A^y mice; assay: Hypotriglyceridemic action; assay type: in vivo, mouse; settings: 4 consecutive days, non-fasting, about 24 hours after final administration, vs control group
Description: as §1, with “triglyceride” for “glucose”, “(triglyceride G-test” for “(glucose CII-test”
Decrease (%) in plasma triglyceride level=[(mean plasma triglyceride level of control group−mean plasma triglyceride level of test compound administration group)/mean plasma triglyceride level of control group]×100

[4] = system: male KK-A^y mice; assay: Hypoglycemic action and hypoinsulinemic action in insulin resistant diabetic mouse; assay type: in vivo; settings: 10 mg/kg orally once a day for 4 days, 24 hours after final administration, non-fasting
Description: Blood was drawn from the tail vein of 12-week-old male KK-A^y mice under a non-fasting state, and the glucose level in the plasma was measured using a commercially available assay kit (glucose CII-test WAKO, Wako Pure Chemical Industries, Ltd.). The mice were grouped (5 mice per group) into a control group and an administration group, such that the mean glucose level in the plasma and the average body weight of each group, as well as the standard deviation thereof were nearly the same. The test compound (10 mg/kg) was suspended in 5% aqueous gum arabic solution and orally administered once a day to the administration group for 4 days from the next day. The 5% aqueous gum arabic solution was orally administered to the control group. Blood was drawn from the tail vein under a non-fasting state 24 hours after the final administration. The concentrations of plasma glucose and plasma insulin were measured.

[5] = system: 3T3-L1 cells; assay: Triglyceride accumulation promoting action in 3T3-L1 cells; assay type: cell-based; settings: 10^−7 M test compound with 10 ng/ml insulin, 4 days; relative to control
Description: A culture medium of 80% confluent 3T3-L1 cells was removed and the cells were dissociated with 0.25% trypsin-EDTA solution. 5% FBS-DMEM (the same amount as the removed medium) was added and the obtained cell suspension was centrifuged at 25° C., 100×g for 1 min to give cell sediment and the supernatant was removed. The cells were re-suspended in a suitable amount of 5% FBS-DMEM medium and the cells were counted. 5% FBS-DMEM medium was added to adjust the concentration to 1×10^5 cells/ml and the mixture was dispensed by 1 ml to a 24 well plate. The cells were cultured with aeration of 5% CO2 at 37° C. for 2 days. Upon confirmation of a post-confluent state, the culture supernatant was changed to a medium containing 0.5 mM-IBMX, and the cells were cultured for 2 days. Then, the medium was changed to a medium containing 10 ng/ml insulin and 10^−7 M test compound and the cells were cultured further for 4 days. After removing the culture supernatant, the cells were lysed in a 0.1% SDS solution and the triglyceride amount was measured. The triglyceride accumulation (%) due to the potentiation of insulin activity by the test compound was calculated from the following formula.
[(triglyceride amount with addition of test compound−triglyceride amount of control)/triglyceride amount of control]×100

## Cc1oc(-c2ccccc2)nc1CCOc1ccc2c(c1)CN(Cc1ccccc1)[C@H](C(=O)O)C2 [Example 2, 2-Benzyl-7-[2-(5-methyl-2-phenyloxazol-4-yl)ethoxy]-1,2,3,4-tetrahydroisoquinoline-(3S)-carboxylic acid]
[1]; dose 10 mg/kg orally
  Decrease (%) in plasma glucose level: 38.3%
[1]; dose 30 mg/kg orally
  Decrease (%) in plasma glucose level: 60.6%
[2]
  Decrease (%) in plasma glucose level: 69.2%
[3]; dose 10 mg/kg orally
  Decrease (%) in plasma triglyceride level: 39.5%
[3]; dose 30 mg/kg orally
  Decrease (%) in plasma triglyceride level: 54.3%
[4]; control 507
  Plasma glucose: 313 mg/dL
[4]; plasma, control 43
  Insulin: 26 ng/mL
[5]
  Triglyceride accumulation (%): 260.4%

## Cc1oc(-c2ccccc2)nc1CCOc1ccc2c(c1)CN(C(=O)c1ccccc1)[C@H](C(=O)O)C2 [Example 10, 2-Benzoyl-7-[2-(5-methyl-2-phenyloxazol-4-yl)ethoxy]-1,2,3,4-tetrahydroisoquinoline-(3S)-carboxylic acid]
[2]
  Decrease (%) in plasma glucose level: 42.4%
